In the test the target is JAK2 (JH1 domain-catalytic, Y1007F, Y1008F) kinase (Homo sapiens (Human), UniProt O60674, Y1007F/Y1008F). The test is described as follows: JAK2 JH1 Domain Binding Assay. The note with it: qPCR readout. Here is the method:
JAK2 (JH1 domain-catalytic, Y1007F, Y1008F) kinase was expressed as N-terminal fusion to the DNA binding domain of NFkB in transiently transfected HEK293 cells and subsequently tagged with DNA for qPCR detection. Streptavidin-coated magnetic beads were treated with biotinylated small molecule ligands for 30 minutes at room temperature to generate affinity resins for kinase assays. The liganded beads were blocked with excess biotin and washed with blocking buffer (SeaBlock (Pierce), 1% BSA, 0.05% Tween 20, 1 mmol/L DTT) to remove unbound ligand and to reduce nonspecific phage binding. Binding reactions were assembled by combining kinases, liganded affinity beads, and test compounds in 1× binding buffer (1× PBS, 0.05% Tween 20, 0.1% BSA, 1 mmol/L DTT). Test compound was prepared as 111× stocks in 100% DMSO and directly diluted into the assay wells. All reactions were performed in polypropylene 384-well plates in a final volume of 0.02 mL. The assay plates were incubated at room temperature with shaking for 1 hour and the affinity beads were washed with wash buffer (1× PBS, 0.05% Tween 20). The beads were then re-suspended in elution buffer (1× PBS, 0.05% Tween 20, 0.5 μmol/L non-biotinylated affinity ligand) and incubated at room temperature with shaking for 30 minutes. The kinase concentration in the eluate was measured by qPCR.
Chain of JAK2 (JH1 domain-catalytic, Y1007F, Y1008F) kinase (O60674 849-1124 Y1007F/Y1008F): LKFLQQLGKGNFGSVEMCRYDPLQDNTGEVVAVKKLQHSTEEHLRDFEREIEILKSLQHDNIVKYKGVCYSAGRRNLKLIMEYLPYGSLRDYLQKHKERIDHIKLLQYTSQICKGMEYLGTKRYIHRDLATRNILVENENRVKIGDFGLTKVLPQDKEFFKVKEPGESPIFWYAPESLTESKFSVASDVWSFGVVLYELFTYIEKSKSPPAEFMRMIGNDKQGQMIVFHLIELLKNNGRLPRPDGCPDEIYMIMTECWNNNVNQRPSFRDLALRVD
A word on the Kd: it is the concentration at which binding is half-saturated. Lower therefore signals higher affinity. `C[C@@H]1C[C@H](N(C)C(=O)Nc2cc(C(F)(F)F)cn(C)c2=O)CCN1c1cnc2[nH]ccc2n1` [Example I-126-b, 1-methyl-1-((2R,4R)-2-methyl-1-(5H-pyrrolo[2,3-b]pyrazin-2-yl)piperidin-4-yl)-3-(1-methyl-2-oxo-5-(trifluoromethyl)-1,2-dihydropyridin-3-yl)urea] showed a Kd below 0.01 µM.
`COc1cc(NC(=O)C2CC2)ncc1N1CCC(N(C)C(=O)Nc2cc(C(F)(F)F)cn(C)c2=O)CC1` [Example I-137, N-(4-methoxy-5-(4-(1-methyl-3-(1-methyl-2-oxo-5-(trifluoromethyl)-1,2-dihydropyridin-3-yl)ureido)piperidin-1-yl)pyridin-2-yl)cyclopropanecarboxamide] had a Kd of 0.01 to 0.05 µM.
`CC(=O)Nc1cnc(N2CC[C@H](N(C)C(=O)Nc3cc(C(F)(F)F)cn(C)c3=O)C[C@@H]2C)cn1` [Example I-134-a, N-(5-((2S,4S)-2-methyl-4-(1-methyl-3-(1-methyl-2-oxo-5-(trifluoromethyl)-1,2-dihydropyridin-3-yl)ureido)piperidin-1-yl)pyrazin-2-yl)acetamide]: the Kd was in the range of 0.05 to 1 µM.
In the case of `CN(C(=O)Nc1cc(C(F)(F)F)cn(C)c1=O)C1CCN(c2cnc3[nH]cc(C#N)c3n2)CC1` [Example I-59, 1-(1-(7-cyano-5H-pyrrolo[2,3-b]pyrazin-2-yl)piperidin-4-yl)-1-methyl-3-(1-methyl-2-oxo-5-(trifluoromethyl)-1,2-dihydropyridin-3-yl)urea] it was below 0.01 µM; in that of `Cn1cc(C(F)(F)F)cc(NC(=O)N2CC=CC23CCN(c2cnc4[nH]cc(C#N)c4n2)CC3)c1=O` [Example I-98, 8-(7-cyano-5H-pyrrolo[2,3-b]pyrazin-2-yl)-N-(1-methyl-2-oxo-5-(trifluoromethyl)-1,2-dihydropyridin-3-yl)-1,8-diazaspiro[4.5]dec-3-ene-1l-carboxamide], 0.01 to 0.05 µM.
In the case of `CN(C(=O)Nc1cc(C(F)(F)F)cn(C)c1=O)[C@@H]1CCN(c2cnc3[nH]ncc3c2)CC1(C)C` (single isomer, unassigned) [Example I-45-b], the Kd was 0.01 to 0.05 µM.
The value for `CC(=O)Nc1c[nH]c2ncc(N3CC[C@H](N(C)C(=O)Nc4cc(C(F)(F)F)cn(C)c4=O)C(F)(F)C3)cc12` (mixture of isomers) [Example I-172-b, (R)—N-(5-(3,3-difluoro-4-(1-methyl-3-(1-methyl-2-oxo-5-(trifluoromethyl)-1,2-dihydropyridin-3-yl)ureido)piperidin-1-yl)-1H-pyrrolo[2,3-b]pyridin-3-yl)acetamide and (S)—N-(5-(3,3-difluoro-4-(1-methyl-3-(1-methyl-2-oxo-5-(trifluoromethyl)-1,2-dihydropyridin-3-yl)ureido)piperidin-1-yl)-1H-pyrrolo[2,3-b]pyridin-3-yl)acetamide] was below 0.01 µM; that for `CC1CN(C(=O)Nc2cc(C(F)(F)F)cn(C)c2=O)C2(CCN(c3cnc4[nH]cc(F)c4n3)CC2)C1` (single isomer, unassigned) [Example I-54-a] was 0.05 to 1 µM.
In turn, `CN(C(=O)Nc1cc(C(F)(F)F)cn(C)c1=O)C1CCN(c2cnc3[nH]ncc3c2)CC1` [Example I-26, 1-(1-(1H-pyrazolo[3,4-b]pyridin-5-yl)piperidin-4-yl)-1-methyl-3-(1-methyl-2-oxo-5-(trifluoromethyl)-1,2-dihydropyridin-3-yl)urea] yielded a Kd below 0.01 µM.
The value for `COCc1cc2nc(N3CC[C@@H](N(C)C(=O)Nc4cc(C(F)(F)F)cn(C)c4=O)[C@@H](F)C3)cnc2[nH]1` [Example I-111-a, 1-((3S,4R)-3-fluoro-1-(6-(methoxymethyl)-5H-pyrrolo[2,3-b]pyrazin-2-yl)piperidin-4-yl)-1-methyl-3-(1-methyl-2-oxo-5-(trifluoromethyl)-1,2-dihydropyridin-3-yl)urea] was below 0.01 µM.
In the case of `Cc1cc(NC(=O)N(C)C2CCN(c3cnc4[nH]ccc4n3)CC2)cc(C(F)(F)F)c1` [Example I-11, 1-(1-(5H-pyrrolo[2,3-b]pyrazin-2-yl)piperidin-4-yl)-1-methyl-3-(3-methyl-5-(trifluoromethyl)phenyl)urea] it was below 0.01 µM.
In the case of `COCc1cc2nc(N3CC[C@H]4[C@H](C3)OCCN4C(=O)Nc3cc(C(F)(F)F)cn(C)c3=O)cnc2[nH]1` [Example I-164-a, (4aS,8aS)-6-(6-(methoxymethyl)-5H-pyrrolo[2,3-b]pyrazin-2-yl)-N-(1-methyl-2-oxo-5-(trifluoromethyl)-1,2-dihydropyridin-3-yl)octahydro-1/-pyrido[3,4-b][1,4]oxazine-1-carboxamide] it was 0.05 to 1 µM; in that of “1-(1-(3-((1R,2R)-2-hydroxycyclobutoxy)-1H-pyrazolo[3,4-b]pyridin-5-yl)piperidin-4-yl)-1-methyl-3-(1-methyl-2-oxo-5-(trifluoromethyl)-1,2-dihydropyridin-3-yl)urea and 1-(1-(3-((1S,2S)-2-hydroxycyclobutoxy)-1H-pyrazolo[3,4-b]pyridin-5-yl)piperidin-4-yl)-1-methyl-3-(1-methyl-2-oxo-5-(trifluoromethyl)-1,2-dihydropyridin-3-yl)urea [Example I-184-a]”, 0.05 to 1 µM; in that of `Cn1cc(C(F)(F)F)cc(NC(=O)C2(C3CCN(c4cnccn4)CC3)CC2)c1=O` [Example I-5, N-(1-methyl-2-oxo-5-(trifluoromethyl)-1,2-dihydropyridin-3-yl)-1-(1-(pyrazin-2-yl)piperidin-4-yl)cyclopropane-1-carboxamide], 0.05 to 1 µM.
`CN(C(=O)Nc1cc(C(F)(F)F)cn(C)c1=O)[C@@H]1CCN(c2cnccn2)CC1(F)F` (single isomer, unassigned) [Example I-22-a] gave a Kd of 0.01 to 0.05 µM.
In the case of `CC(=O)N1CCC(c2n[nH]c3ncc(N4CC[C@@H](N(C)C(=O)Nc5cc(C(F)(F)F)cn(C)c5=O)C(F)(F)C4)cc23)CC1` (single isomer, unassigned) [Example I-123-a] it was below 0.01 µM; in that of `CN1CCC(c2n[nH]c3ncc(N4CC[C@H](N(C)C(=O)Nc5cc(C(F)(F)F)cn(C)c5=O)C(F)(F)C4)cc23)CC1` (single isomer, unassigned) [Example I-122-a], below 0.01 µM; in that of `Cc1cc2nc(N3CCC(N(C)C(=O)Nc4cc(C(F)(F)F)cn(C)c4=O)CC3)cnc2[nH]1` [Example I-31, 1-methyl-3-(1-methyl-2-oxo-5-(trifluoromethyl)-1,2-dihydropyridin-3-yl)-1-(1-(6-methyl-5H-pyrrolo[2,3-b]pyrazin-2-yl)piperidin-4-yl)urea], below 0.01 µM.
The value for `COc1c[nH]c2ncc(N3CC[C@@H](N(C)C(=O)Nc4cc(C(F)(F)F)cn(C)c4=O)[C@H](F)C3)nc12` [Example I-150, 1-((3R,4R)-3-fluoro-1-(7-methoxy-5H-pyrrolo[2,3-b]pyrazin-2-yl)piperidin-4-yl)-1-methyl-3-(1-methyl-2-oxo-5-(trifluoromethyl)-1,2-dihydropyridin-3-yl)urea] was below 0.01 µM; that for `CN(C(=O)Nc1cc(C(F)(F)F)n([C@@H]2CCOC2)n1)C1CCN(c2cnc3[nH]ncc3c2)CC1` [Example I-180, (R)-1-(1-(1H-pyrazolo[3,4-b]pyridin-5-yl)piperidin-4-yl)-1-methyl-3-(1-(tetrahydrofuran-3-yl)-5-(trifluoromethyl)-1H-pyrazol-3-yl)urea] was below 0.01 µM.

The values above are taken from patent US20240116892A1, “HETEROCYCLIC AMIDE AND UREA COMPOUNDS AS JAK2 INHIBITORS” (Ajax Therapeutics, Inc., priority 2022, published 2024).
